In patent US12285470B2, “Trim proteins and galectins cooperate and codirect autophagy and are useful in the treatment of autophagy related diseases” (UNM RAINFOREST INNOVATIONS, priority 2016, dated 2025):
Where a SMILES comes first, the peptide text is derived from it. The star is where a group is joined. βNA = c1ccc2cc(N*)ccc2c1

Assays:
[1] = Blood levels of rapamycin by mass spectrometry in mice on eRAPA chow; conditions: 42 ppm eRAPA dose in chow; n=8 animals, mean±SD (±35 ng/ml)
[2] = test system: THP-1 macrophages; test: Lysosomal damage readouts (cathepsin B activity, LysoTracker Red) in THP-1 macrophages; assay type: cell-based
[3] = test system: AMPK; test: AMPK activation response in THP-1 macrophages; assay type: cell-based; conditions: cells KD for Gal9
[4] = test system: THP-1 macrophages; test: Galectin puncta formation in THP-1 macrophages; assay type: cell-based; conditions: 250 μM, 2h
[5] = test system: primary murine bone marrow-derived macrophages (BMMs); test: Oxygen consumption rate (Seahorse) in bone marrow-derived macrophages; assay type: cell-based
[6] = test system: HEK293 cells with YFP-Gal fusion; test: YFP-Galectin puncta formation by high content microscopy; assay type: cell-based; conditions: 100 μM, 1h
From the text: Data, means±SD; n=1000 cells per condition; n>3; ANOVA, Tukey's t test vs. control, *p<0.05.**p<0.01.
a) Screen set up. […] Given that the endomembrane damage protection is a highly conserved process, we will use stable (Flp-In) YFP-Gal8 and YFP-Gal9 293A cells. […] In THP-1 cells, we will use endogenous Gal8 and Gal9 responses to lysosomal damage control. […] Quantification of target 1 (Gal8) and target II (Gal9) intracellular objects (Gal8 puncta) will be done by automated HC microscopy on our Cellomics Array Scanner system and processed, as we have recently published^99. We will use in primary tests parameters of 20 fields per well and >500 valid primary objects per well, corresponding to parameters that follow Z values of >0.5^155 in positive controls (100 μM GPN; 2 mM LLOMe) vs. negative controls (DMSO). For secondary tests of positive hits, 49 field/plate will be examined.

[7] = test system: HeLa cells; test: High content microscopy of LC3 and ubiquitin puncta after lysosomal damage; assay type: cell-based
Protocol: (§1) High content microscopy with automated image acquisition and quantification was carried out using a Cellomics HCS scanner and iDEV software (Thermo) in 96-well plates (Mandell et al., 2014). Immunofluorescence confocal microscopy was performed using an LSM510 confocal microscope and Zeiss software package. For quantification of puncta or total cell fluorescence, image J was used as described previously (Chauhan et al., 2015). For quantifying cell death, HeLa and derivative cells treated with 15 μM siramesine for 12 h were incubated with 7AAD (BD Pharmingen™; cat #559925) for 30 min and fluorescence of 7AAD bound to nuclear DNA measured in a flow cytometer.

[8] = test system: TFEB; test: High content analysis of TFEB nuclear translocation; assay type: cell-based; conditions: HeLa cells, lysosomal damage
Protocol: as §1

[9] = test system: mTOR; test: S6K1 phosphorylation (mTOR target) immunoblot in HeLa cells; assay type: cell-based; conditions: 1 mM, 2h
Protocol: (§2) Immunoblots and co-IPs assays for endogenous or exogenously expressed proteins were carried out as described previously (Chauhan et al., 2015). For immunoprecipitation experiments with exogenously expressed proteins, 293T cells were transfected with 5 μg of expression constructs by calcium phosphate for 24 h and lysed on ice using NP-40 buffer (Invitrogen) containing protease inhibitor cocktail (Roche, cat #11697498001) and […] (Sigma, cat #93482). Lysates were mixed with antibody (2-3 μg) incubated at 4° C. for 2 h followed by incubation with protein G Dynabeads (Life technologies) for 2 h at 4° C. Beads were washed four times with PBS and then boiled with SDS-PAGE buffer for analysis of interacting protein by Immunoblotting. Input lanes contained 10% of material unless otherwise indicated.

[10] = test system: DEPTOR; test: DEPTOR levels in extracts of HeLa cells; assay type: cell-based; conditions: 1 mM, 2h
Protocol: as §2

[11] = test system: HeLa cells; test: Cell death by 7AAD nuclear staining, flow cytometry; assay type: cell-based
Protocol: as §1

[12] = test system: THP-1 cells; test: Confocal microscopy of TRIM16 puncta in THP-1 cells; assay type: cell-based; conditions: 0.5 mM
Protocol: as §1

[13] = test system: HeLa cells; conditions: Petersen et al., 2013; cited from earlier work
[14] = test system: HeLa cells; test: Confocal microscopy of TRIM16 puncta in HeLa cells; assay type: cell-based
Protocol: as §1

[15] = test system: Mtb Erdman; set-up: species or system C57BL/6J mice; conditions: mouse, in vivo
[16] = molecular target: T1, Galectin-8 (Homo sapiens, UniProt O00214); test: GST pulldown of in vitro translated radiolabeled TRIMs with GST-Galectin-8; assay type: binding; conditions: in vitro translated 35S-Myc-HA-TRIMs
T1 construct: made in house; host or cells: Escherichia coli SoluBL21
T1 sequence (O00214 1-359 isoform O00214-2): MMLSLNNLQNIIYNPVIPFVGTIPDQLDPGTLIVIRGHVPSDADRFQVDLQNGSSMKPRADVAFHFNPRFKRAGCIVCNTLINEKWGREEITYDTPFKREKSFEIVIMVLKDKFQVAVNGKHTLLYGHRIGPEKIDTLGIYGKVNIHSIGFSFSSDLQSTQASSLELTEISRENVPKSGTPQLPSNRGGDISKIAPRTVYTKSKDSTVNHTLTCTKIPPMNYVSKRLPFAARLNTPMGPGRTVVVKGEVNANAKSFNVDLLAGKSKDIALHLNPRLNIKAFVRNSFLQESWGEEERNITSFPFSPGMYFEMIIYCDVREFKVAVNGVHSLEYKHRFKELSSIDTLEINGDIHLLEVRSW
From the text: (§3) GST-fusion proteins were expressed in Escherichia coli SoluBL21 (Amsbio). […] The [^35S] labeled proteins were produced using the TNT T7 Quick Coupled Transcription/Translation System (Promega) in the presence of [^35S] L-methionine. The proteins were eluted from washed beads by boiling in SDS-PAGE gel loading buffer. separated by SDS-PAGE, and radiolabeled proteins were detected in a Fujifilm bioimaging analyzer BAS-5000 (Fuji).

[17] = molecular target: T2, Galectin-3 (Homo sapiens, UniProt P17931); test: GST pulldown of in vitro translated radiolabeled TRIMs with GST-Galectin-3; assay type: binding; conditions: in vitro translated 35S-Myc-HA-TRIMs, no ULK1 added
T2 construct: made in house; host or cells: Escherichia coli SoluBL21
T2 sequence (P17931 whole entry): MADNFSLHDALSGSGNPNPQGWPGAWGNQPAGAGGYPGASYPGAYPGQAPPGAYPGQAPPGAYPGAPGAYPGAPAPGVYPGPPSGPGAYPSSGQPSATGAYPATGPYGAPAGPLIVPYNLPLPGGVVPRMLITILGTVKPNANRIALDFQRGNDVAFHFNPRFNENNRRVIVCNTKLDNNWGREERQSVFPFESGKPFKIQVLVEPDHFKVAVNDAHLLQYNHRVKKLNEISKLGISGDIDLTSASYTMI
From the text: as §3

## CO[C@H]1C[C@@H]2CC[C@@H](C)[C@@](O)(O2)C(=O)C(=O)N2CCCC[C@H]2C(=O)O[C@H]([C@H](C)C[C@@H]2CC[C@@H](O)[C@H](OC)C2)CC(=O)[C@H](C)/C=C(\C)[C@@H](O)[C@@H](OC)C(=O)[C@H](C)C[C@H](C)/C=C/C=C/C=C/1C [rapamycin]
[1]
  blood levels of rapamycin: 205 ng/mL

## CN(C)C(=N)N=C(N)N [metformin]
[2]; THP-1 macrophages
  LysoTracker Red stain: Reduction
  lysosomal cathepsin B activity: loss of activity
[2]; preliminary studies
  lysosomal damage: causes lysosomal damage
[3]
  AMPK activation: Gal9-dependent AMPK activation
[4]
  Galectin puncta formation: causes Gal3, Gal8, and Gal9 puncta formation

## NCC(=O)N[C@@H](Cc1ccccc1)C(=O)Nc1ccc2ccccc2c1 [GPN, Gly-Phe-naphthylamide] (H-Gly-Phe-βNA)
[5]
  oxygen consumption rate (OCR): alters
[6]
  cytoplasmic Galectin puncta formation response: Gal3, Gal8 and Gal9 give the most robust response

## COC(=O)[C@H](CC(C)C)NC(=O)[C@@H](N)CC(C)C [LLOMe, Leu-Leu-O-Me]
[7]
  LC3 response (endogenous LC3B puncta): consistent LC3 dose response
[7]; high content microscopy
  abundance of ubiquitin puncta: Dose-dependent increase
[8]
  TFEB translocation to the nucleus: translocated to the nucleus
[9]
  mTOR activity (S6K1 phosphorylation): inhibited
[10]
  cellular DEPTOR level: increased
[11]; HeLa cells
  lysosomal cell death: cannot cause significant lysosomal cell death
[12]
  TRIM16 puncta formation in leukocytes: morphologically prominent

## Fc1ccc(-n2cc(CCCCN3CCC4(CC3)OCc3ccccc34)c3ccccc32)cc1 [siramesine]
[13]
  cell death in HeLa cells (literature): can promote cell death
[14]
  TRIM16 puncta formation in HeLa cells: formation of TRIM16 puncta that colocalized with LC3B
[11]; 15 μM, 12 h, 7AAD
  sensitivity to cell death in TRIM16KO HeLa cells vs HeLa: increased sensitivity to cell death

## Nc1c(Br)cc(Br)cc1CN[C@H]1CC[C@H](O)CC1 [ambroxol]
[15]
  effect on Mtb lung CFU in combination with rifampicin: synergism

B1: TRIM22: TRIM protein, Accession No. NM_006074, SEQ ID NO: 9 (protein, listed as Homo sapiens)
chain: MDFSVKVDIEKEVTCPICLELLTEPLSLDCGHSFCQACITAKIKESVIISRGESSCPVCQTRFQPGNLRPNRHLANIVERVKEVKMSPQEGQKRDVCEHHGKKLQIFCKEDGKVICWVCELSQEHQGHQTFRINEVVKECQEKLQVALQRLIKEDQEAEKLEDDIRQERTAWKNYIQIERQKILKGFNEMRVILDNEEQRELQKLEEGEVNVLDNLAAATDQLVQQRQDASTLISDLQRRLRGSSVEMLQDVIDVMKRSESWTLKKPKSVSKKLKSVFRVPDLSGMLQVLKELTDVQYYWVDVMLNPGSATSNVAISVDQRQVKTVRTCTFKNSNPCDFSAFGVFGCQYFSSGKYYWEVDVSGKIAWILGVHSKISSLNKRKSSGFAFDPSVNYSKVYSRYRPQYGYWVIGLQNTCEYNAFEDSSSSDPKVLTLFMAVPPCRIGVFLDYEAGIVSFFNVTNHGALIYKFSGCRFSRPAYPYFNPWNCLVPMTVCPPSS
[16]
  binding to GST-Galectin-8 in GST pulldown: bound
[17]
  binding to GST-Galectin-3 in GST pulldown: bound

B2: TRIM49: TRIM (tripartite motif) protein tested in GST-Galectin pulldowns (protein)
chain: MNSGILQVFQGELICPLCMNYFIDPVTIDCGHSFCRPCFYLNWQDIPFLVQCSECTKSTEQINLKTNIHLKKMASLARKVSLWLFLSSEEQMCGTHRETKKIFCEVDRSLLCLLCSSSQEHRYHRHRPIEWAAEEHREKLLQKMQSLWEKACENHRNLNVETTRTRCWKDYVNLRLEAIRAEYQKMPAFHHEEEKHNLEMLKKKGKEIFHRLHLSKAKMAHRMEILRGMYEELNEMCHKPDVELLQAFGDILHRSESVLLHMPQPLNPELSAGPITGLRDRLNQFRVHITLHHEEANNDIFLYEILRSMCIGCDHQDVPYFTATPRSFLAWGVQTFTSGKYYWEVHVGDSWNWAFGVCNMYRKEKNQNEKIDGKAGLFLLGCVKNDIQCSLFTTSPLMLQYIPKPTSRVGLFLDCEAKTVSFVDVNQSSLIYTIPNCSFSPPLRPIFCCIHF
modifications: left off: small tags and cut ends
notes: TRIM (tripartite motif) protein tested in GST-Galectin pulldowns
[16]
  binding to GST-Galectin-8 in GST pulldown: bound
[17]
  binding to GST-Galectin-3 in GST pulldown: bound
